Data as given in patent US20250129012A1, “ANTI-INFLAMMATORY AND ANALGESIC COMPOUNDS AND USE THEREOF” (JIANGSU ATOM BIOSCIENCE AND PHARMACEUTICAL CO., LTD., priority 2021, published 2025).

Columns and labels:
[1] = system: gouty arthritis in rats (urate crystals, left ankle joint); experiment: Pharmacodynamics experiment A on gouty arthritis in rats: gait score; type: in vivo, SD rats; set-up: Gait Score: scale not given here; details: 0.6 mg/kg gavage; for Gait Score: Mean ± SEM
Procedure: Compounds 2, 17, 26 and 27 were prepared by grinding with 0.5% CMC-Na into a suspension of the corresponding concentration (0.06 mg/mL) for gavage before administration, and the volume of administration was 10 mL/kg. […] Before use, 0.5% CMC-Na was used for grinding and prepared into a suspension of the corresponding concentration (0.06 mg/mL) for gavage, and the volume of drug administered was 10 mL/kg.
Each group of subjects was prepared into a suspension of the corresponding concentration, and the administration volume was 10 mL/kg.
(§1) The crystalline arthritis model was prepared by intra-articular injection of urate crystals (40 mg/mL, in the left ankle joint of each rat). Different doses of the test drug were given separately by gavage administration. The day of administration was defined as day 1 of the experiment, and the drug was administered once a day for 10 consecutive days (pre-administration of the drug for 7 days prior to modeling, modeling on day 8, and continuation of the drug for 3 days). The experiment ended on day 10.
The degree of lameness of the modeled joints was observed and scored at the same time point.
The data obtained from the experiment were statistically analyzed using IBM SPSS Statistics 22.0. All measurements were expressed as Mean±S.E.M s. The data were analyzed using SPSS 22.0 statistical software and variance chi-square test was performed on the parameters.

IL-6 = experiment: Inflammatory factor experiment A: IL-6 in gouty arthritis rats; type: in vivo, SD rats; details: synovial tissue of knee joints; dose 0.6 mg/kg gavage; day 10
Procedure: Compounds 14, 17 and 26 were prepared by grinding with 0.5% CMC-Na before administration and into a suspension for gavage at the corresponding concentration (0.06 mg/mL), with a dosage volume of 10 mL/kg. Colchicine, purchased from Sun Chemical Technology (Shanghai) Co., Ltd. with batch no. 49ETRRAS, and was prepared by grinding with 0.5% CMC-Na before administration and into a suspension for gavage at the corresponding concentration (0.06 mg/mL), with a dosage volume of 10 mL/kg.
The compounds in each group were prepared into a suspension of the corresponding concentration, and the dosage volume was 10 mL/kg.
as §1, with “(40 mg/mL” for “(40 mg/mL,”, “test compounds” for “test drug”, “the compounds were” for “the drug was”, “10. […]” for “10.”

COc1cc2c(c(OC)c1OC)-c1ccc(OC)c(=O)cc1[C@@H](NC(C)=O)CC2 [colchicine, reference compound]
Gait versus model group, in words ([1]; time points after modeling, P<0.05 or P<0.01): improved the gait of rats at 2 h, 24 h, and 48 h after modeling | Gait Score ([1]; 2 h after modeling): 1.10 ± 0.10 | Gait Score ([1]; 4 h after modeling): 1.10 ± 0.10 | Gait Score ([1]; 8 h after modeling): 1.30 ± 0.15 | Gait Score ([1]; 10 h after modeling): 1.30 ± 0.21 | Gait Score ([1]; 24 h after modeling): 1.00 ± 0.00 | Gait Score ([1]; 48 h after modeling): 1.00 ± 0.00 | Gait Score ([1]; before modeling): 0.00 ± 0.00 | Decreased IL-6 percentage % (IL-6): 107.14%
